Experimental data as given in patent US11013745B2, “Triazolopyrimidine, triazolopyridine compounds, and the composition thereof for treating PRC2-mediated diseases” (SHANGHAI INSTITUTE OF MATERIA MEDICA, CHINESE ACADEMY OF …, priority 2017, dated 2021).
Read-outs that look alike come from different tables or passages of the source.

What was measured:
SU-DHL-4 cells = experiment: Growth inhibition of SU-DHL-4 cells in a long term (11 days), CellTiter-Glo; format: cell-based, Human; details: SU-DHL-4, 11 days, read-out: SU-DHL-4 (11 days) IC50
PRC2 enzyme = PRC2 enzyme (Homo sapiens (Human), UniProt O75530); experiment: PRC2 enzyme activity, TR-FRET method; format: biochemical
Chain of PRC2 enzyme (O75530 whole entry): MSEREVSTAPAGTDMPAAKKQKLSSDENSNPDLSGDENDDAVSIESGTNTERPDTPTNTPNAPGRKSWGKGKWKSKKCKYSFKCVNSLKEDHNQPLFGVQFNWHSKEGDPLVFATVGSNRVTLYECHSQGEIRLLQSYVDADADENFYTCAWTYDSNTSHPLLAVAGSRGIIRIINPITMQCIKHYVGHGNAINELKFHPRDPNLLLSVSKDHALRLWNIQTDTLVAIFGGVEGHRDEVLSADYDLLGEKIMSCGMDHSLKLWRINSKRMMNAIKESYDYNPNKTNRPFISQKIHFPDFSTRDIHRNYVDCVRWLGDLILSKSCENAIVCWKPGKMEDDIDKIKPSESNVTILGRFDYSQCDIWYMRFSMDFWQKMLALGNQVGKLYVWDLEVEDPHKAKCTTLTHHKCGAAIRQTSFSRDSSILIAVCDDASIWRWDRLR
Chain of PRC2 enzyme (Q15910 whole entry partner): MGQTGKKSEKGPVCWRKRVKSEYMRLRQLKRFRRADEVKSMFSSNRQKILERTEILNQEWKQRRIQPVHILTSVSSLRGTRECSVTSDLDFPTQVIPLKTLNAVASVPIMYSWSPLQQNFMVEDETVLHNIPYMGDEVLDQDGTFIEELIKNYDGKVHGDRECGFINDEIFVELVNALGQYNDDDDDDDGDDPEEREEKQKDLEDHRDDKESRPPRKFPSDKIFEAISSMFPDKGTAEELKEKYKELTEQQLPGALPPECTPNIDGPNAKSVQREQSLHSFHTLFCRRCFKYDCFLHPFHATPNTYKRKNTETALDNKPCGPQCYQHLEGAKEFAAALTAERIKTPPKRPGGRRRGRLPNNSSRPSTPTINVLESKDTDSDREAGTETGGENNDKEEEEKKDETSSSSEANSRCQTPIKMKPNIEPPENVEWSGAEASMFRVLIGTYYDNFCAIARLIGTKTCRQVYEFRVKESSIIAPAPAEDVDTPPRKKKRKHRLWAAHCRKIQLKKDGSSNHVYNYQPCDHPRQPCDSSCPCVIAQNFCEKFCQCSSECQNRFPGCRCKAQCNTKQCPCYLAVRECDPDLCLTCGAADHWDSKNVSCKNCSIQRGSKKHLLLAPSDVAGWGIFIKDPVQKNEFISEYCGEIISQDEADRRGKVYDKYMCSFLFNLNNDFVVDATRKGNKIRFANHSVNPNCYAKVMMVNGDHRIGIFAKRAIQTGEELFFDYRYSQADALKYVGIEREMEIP
Chain of PRC2 enzyme (Q15022 whole entry partner): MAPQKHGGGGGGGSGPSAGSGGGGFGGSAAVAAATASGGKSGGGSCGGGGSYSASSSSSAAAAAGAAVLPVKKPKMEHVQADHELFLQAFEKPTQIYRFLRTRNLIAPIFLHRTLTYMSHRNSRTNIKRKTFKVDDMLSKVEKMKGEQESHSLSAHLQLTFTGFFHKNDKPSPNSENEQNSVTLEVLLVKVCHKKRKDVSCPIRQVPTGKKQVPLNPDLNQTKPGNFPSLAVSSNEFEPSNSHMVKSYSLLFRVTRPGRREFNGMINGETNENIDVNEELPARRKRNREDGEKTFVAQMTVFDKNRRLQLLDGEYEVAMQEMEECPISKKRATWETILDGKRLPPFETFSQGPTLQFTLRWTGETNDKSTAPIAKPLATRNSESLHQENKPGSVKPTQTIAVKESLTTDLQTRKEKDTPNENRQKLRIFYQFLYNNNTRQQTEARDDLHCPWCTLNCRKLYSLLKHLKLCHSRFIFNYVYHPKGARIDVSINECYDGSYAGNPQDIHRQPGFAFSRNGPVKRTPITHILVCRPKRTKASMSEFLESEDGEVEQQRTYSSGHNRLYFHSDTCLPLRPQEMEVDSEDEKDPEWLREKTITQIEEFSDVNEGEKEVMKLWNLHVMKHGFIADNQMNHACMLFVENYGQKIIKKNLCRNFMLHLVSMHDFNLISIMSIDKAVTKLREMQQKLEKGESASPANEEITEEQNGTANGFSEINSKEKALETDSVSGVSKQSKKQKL
Description: The TR-FRET method was used to measure the PRC2 enzyme activity. First, the enzyme was mixed with compounds at different concentrations and incubated for 30 min at room temperature. The biotin-labeled histone H3 peptide substrate and the cofactor S-adenosylmethionine (SAM) were added to initiate the enzymatic reaction. After reaction was performed at room temperature for 4 hour, Acceptor and Donor were added and incubated for half an hour. The multifunctional microplate reader EnVision (Perkin Elmer Inc.) was used to detect the fluorescence signal. Data were analyzed using GraphPad Prism 5.0 software, and IC50 values were obtained.

Pfeiffer cells [1] = experiment: Pfeiffer cell growth inhibition in a long term (11 days), CellTiter-Glo; format: cell-based, Human; details: 11 days, read-out: Experiment on Pfeiffer cell growth inhibition in a long term (11 days IC50)
Description: Pfeiffer cells in exponential growth phase were seeded in a 24-well plate with a cell density of 1*10E5 cells/mL. Cells were treated on the same day with the compounds at different concentrations. At day 4 and day 7 of compound treatment, fresh media and compounds were changed. After treated with the compounds for 11 days, cell viability was measured using CellTiter-Glo reagent (Promega Corporation). The data was analyzed using GraphPad Prism 5.0 software and GI50 values were obtained.

Karpas-422 cells = experiment: Growth inhibition of Karpas-422 cells in a long term (11 days), CellTiter-Glo; format: cell-based, Human; details: Karpas-422, 11 days, read-out: Karpas-422 (11 days) IC50
Pfeiffer cells [2] = experiment: Growth inhibition of Pfeiffer cells in a long term (14 days), CellTiter-Glo; format: cell-based, Human; details: 14 days, read-out: Pfeiffer (14 days) IC50
Description: In a CO2 cell incubator (37° C., 5% CO2), Human diffuse large B-cell lymphoma (DLBCL) cell line, pfeiffer (obtained from ATCC, CRL-2632) were incubated with RPMI 1640 medium (Gibco, purchased from Life Technologies, 22400-089) containing 10% fetal bovine serum (Gibco, purchased from Life Technologies, 10099-141) and 1% antibiotics (penicillin and streptomycin, purchased from Life Technologies, 10378016). […] After seeding the cells, they were placed in a CO2 incubator and allowed to stand for 1 hour. In a 24-well plate containing cells, 2 μL of three-fold gradient of the compounds at 9 different concentrations or DMSO were added to each well, such that the final concentration of the compounds was 0.003-20 μM or 0.3-2000 nM, and the final concentration of DMSO was 0.2%. At day 4, day 7, and day 11 of compound treatment, the fresh medium and compounds were changed, and the cell density of the DMSO control well was diluted to 2*10E5 cells/mL. The cell dilution ratio for other compound wells was the same as that of the DMSO control well. Cell viability was determined by using CellTiter-Glo reagent (purchased from Promega Inc., G7572): cells treated with the compounds for 14 days were transferred to a white 384-well plate (OptiPlate-384, purchased from PerkinElmer, 6007299) at 40 μL/well, an equal volume of CellTiter-Glo reagent was further added. After incubating at room temperature for 10 min, the cold luminescence signal was detected with a multifunctional microplate reader EnVision (PerkinElmer) at a wavelength of 400 to 700 nm. Data were analyzed using GraphPad Prism 5.0 software, and IC50 values were obtained.

[3] = Oral pharmacokinetics in rats; format: in vivo; details: male, SD, plasma, rat, intragastric, 3 mg/kg; for AUC(0-inf): extrapolated to infinity, read-out: AUCINF_obs; for MRT inf: read-out: Average residence time MRTINF_obs; for half-life: read-out: Half life T1/2 (converted); for Cmax: read-out: Peak concentration Cmax
Description: 1. Healthy male SD rats were used as test animals, EED226, […]-07 (3 mg/kg) were administered intragastrically, and the drug concentrations in rat plasma were determined by LC/MS/MS method at different time points after drug administration. The pharmacokinetic behavior of the compounds of the present invention in rats was studied, and the pharmacokinetic properties were evaluated. 2. The test animals were healthy adult male SD rats, with 3 rats in each group, purchased from Shanghai Xipuer-Bikai Laboratory Animal Limited Company. 3. Drug preparation: Compounds EED226, […] were dissolved in DMSO/0.5% HPMC (5/95, v/v) for preparation. The compound SL-ZYE-07 was dissolved in 0.5% HPMC (containing 0.5% Tween 80), vortexed, and sonicated to disperse the solid matter uniformly to obtain a pale white suspension. 4, Operation: EED226, […]-07 were administered to rats by intragastric administration (3 mg/kg), 45 μL of blood was taken through the femoral vein at 0.25, 0.5, 1, 2, 4, 8, 24 hour after administration, and centrifuged in a heparinized centrifuge tube for 5 min, and the plasma samples were separated for analysis. The contents of test compounds in rat plasma after intragastric administration of different compounds were determined by Liquid chromatography-mass spectrometry (LC-MS/MS).

[4] = Liver microsomal stability (mouse); format: in vitro ADME
[5] = Liver microsomal stability (human); format: in vitro ADME
Description: (§1) 1. JANUS and temperature control device was turned on. After being initialized, the pipes were flushed until there was no air bubble in the pipes.
(§2) 2. Preparation of buffers used for the experiment
(§3) Preparation of Tris pH 7.4 buffer (0.1 M): 12.12 g of Tris was dissolved in 1000 mL of H2O, the resulting solution was adjusted to pH 7.4 with 2N HCl, aliquoted at 50 mL per tube, and stored at −20° C.
(§4) Preparation of H2O/0.1% BSA buffer: 200 μL of 25% BSA was added to 50 mL of H2O.
(§5) Preparation of VIVID stock solution: 1 mg of VIVID was dissolved in 1 mL of acetonitrile, aliquoted at 50 μL per tube, and stored at −20° C.
(§6) Preparation of MgCl2 solution (100 mM): 1.016 g of MgCl2 was dissolved in 50 mL Tris pH 7.4 buffer, and aliquoted at 1 mL per tube, and stored at −20° C.
(§7) Preparation of NADPH solution (10 mM): 355 mg of NADPH was dissolved in 42.6 mL of Tris pH 7.4 buffer, aliquoted at 1.8 mL per tube, and stored at −20° C.
(§8) Preparation of Blank control: 7.937 mL of Tris, 163 μL of RLM, 450 μL of MgCl2 solution, 450 μL of NADPH solution and 9 mL of methanol were mixed uniformly, aliquoted at 1 mL per tube, and stored at −20° C.
(§9) 3. Preparation of Compound Working Solution
(§10) Dilution step 1:10 μL of compound stock solution was added to 90 μL of DMSO=1 mM stock solution.
(§11) Dilution step 2: 2 μL of 1 mM stock solution was added to 1 mL of H2O/0.1%6 BSA buffer=[…] working solution.
(§12) Dilution step 3: 245 μL of the working solution was added to a 96-well compound plate and added with 5 μL of VIVID stock solution.
(§13) The 96-well compound plate was shaken on a shaker for 5 min.
(§14) 4. The STM in the JANUS in the computer was open to run the EXCEL file, and the JANUS program was operated and run by following the instructions in the EXCEL file.
(§15) 5. After the JANUS program was finished, acetonitrile/water 50:50 (V/V) was added to column 20 of the 384-well black plate, and blank control was added to column 21 of the 384-well black plate.
(§16) 6. the plate (420 nm-465 nm) was read on a microplate reader to determine the VIVID fluorescence intensity.
(§17) 7. After the plate was sealed, shaken and centrifuged, the sample plate was subjected to the LC/MS instrument for sample analysis.
(§18) A profile of the logarithmic value of the remaining rate of the drug in the incubation system versus the incubation time was plotted, and the slope k was obtained by linear regression. The intrinsic clearance rate in vivo (Clint, mL/min/g) value, the clearance rate in vivo (Cl, mL)/min), liver clearance (Clhep, mL/min) and metabolic bioavailability (% MF) were predicted according to the following equations: […]

[6] = Liver microsomal stability (rat); format: in vitro ADME
Description: as §1, §2, §3, §4, §5, §6, §7, §8, §9, §10, §11, §12, §13, §14, §15, §16, §17, §18

SMILES	IC50 (SU-DHL-4 cells; Homo sapiens, 264 h) [nM]	IC50 (PRC2 enzyme) [nM]	IC50 (Pfeiffer cells [1]; Homo sapiens, 264 h) [nM]	IC50 (Karpas-422 cells; Homo sapiens, 264 h) [nM]	IC50 (Pfeiffer cells [2]; Homo sapiens, 336 h) [nM]	AUC(0-t) [3] [ng·h/mL]	AUC(0-inf) [3] [ng·h/mL]	MRT inf [3] [h]	half-life [3] [h]	Cmax [3] [ng/mL]	also measured
CCS(=O)(=O)N1CC=C(c2cnc(NCc3c(F)ccc4c3CCO4)n3cnnc23)CC1 [SL-ZYE-144]	3	3.5	1.8	4	0.8	–	–	–	–	–	–
CC1C=C(c2cnc(NCc3c(F)ccc4c3CCO4)n3cnnc23)CCO1 (centres unmarked) [SL-ZYE-197]	–	7.8	–	–	–	–	–	–	–	–	IC50 (SU-DHL-4 cells): 56 nM; IC50 (Pfeiffer cells [1]): 10 nM; IC50 (Karpas-422 cells): 16 nM; IC50 (Pfeiffer cells [2]): 5 nM
Fc1ccc2c(c1CNc1ncc(C3=CCCOCC3)c3nncn13)CCO2 [SL-ZYE-07]	5	7.3	–	25	1	891 ± 164	910 ± 174	4.71 ± 0.896	3.77 ± 1.69	155 ± 34.8	–
Fc1ccc2c(c1CNc1ncc(C3CCOCC3)c3nncn13)CCO2 [E-Y47]	–	13	–	18	6	7890 ± 2430	7900 ± 2440	4.92 ± 0.369	2.56 ± 0.302	1300 ± 628	Clearance rate in vivo Clint In Vivo Extpl ([4]; mouse liver microsomes): 1.17 mL/min; Intrinsic clearance rate in vivo Clint In Vitro ([4]; mouse liver microsomes): 17.3 mL/min/gprot; Liver clearance rate Clint Hep In Vivo Extpl ([4]; mouse liver microsomes): 0.841 mL/min; Metabolic bioavailability MF % ([4]; mouse liver microsomes): 72.0%; half-life ([4]; mouse, liver microsomes, pH 7.4, mouse liver microsomes, read-out: Half life T-half): 2.02 h; Clearance rate in vivo Clint In Vivo Extpl ([5]; human liver microsomes): 519 mL/min; Intrinsic clearance rate in vivo Clint In Vitro ([5]; human liver microsomes): 6.79 mL/min/gprot; Liver clearance rate Clint Hep In Vivo Extpl ([5]; human liver microsomes): 386 mL/min; half-life ([5]; human, liver microsomes, pH 7.4, human liver microsomes, read-out: Half life T-half): 5.15 h; bioavailability ([5]; human, liver microsomes, pH 7.4, human liver microsomes, read-out: Metabolic bioavailability MF %): 74.3%; Clearance rate in vivo Clint In Vivo Extpl ([6]; rat liver microsomes): 6.79 mL/min; Intrinsic clearance rate in vivo Clint In Vitro ([6]; rat liver microsomes): 15.1 mL/min/gprot; Liver clearance rate Clint Hep In Vivo Extpl ([6]; rat liver microsomes): 5.07 mL/min; Metabolic bioavailability MF % ([6]; rat liver microsomes): 74.7%; half-life ([6]; rat, liver microsomes, pH 7.4, rat liver microsomes, read-out: Half life T-half): 2.32 h
O=S(=O)(C1CC1)N1CC=C(c2cnc(NCc3c(F)ccc4c3CCO4)n3cnnc23)CC1 [SL-ZYE-146]	4	2.9	4.5	4	3	–	–	–	–	–	–
